Patent US20220194959A1, “CRYSTAL FORM OF EGFR INHIBITOR AND PREPARATION METHOD THEREOF” (MEDSHINE DISCOVERY INC., priority 2019, published 2022)

How the values were obtained:
Format in all cases: physicochemical
[1] = Solubility assay in media with different pHs; conditions: for solubility at 2 h / solubility at 24 h: 37 °C, thermodynamic from solid; for Solubility (2 hours) / Solubility (24 hours): 37° C.; for Final pH: filtrate of saturated solution
Protocol: (§1) 9 parts of 4 mg of the crystal form A of the compound of formula (II) were weighed and added to a 1.5 mL sample bottle, respectively, and then 1 mL of different media (0.1 mol/L HCl, 0.01 mol/L HCl, pH3.8 buffer solution, pH4.5 buffer solution, pH5.5 buffer solution, pH6.0 buffer solution, pH6.8 buffer solution, pH7.4 buffer solution, and water) were added, respectively. Based on the dissolution situation, the raw material compound was continuously added until a saturated solution was formed. The magnetic bar was added to the above suspension, and the suspension was placed on a magnetic stirrer (37° C., protected from light) and stirred. […] The upper layer of the sample was filtered with a filter membrane, and the pH value of the filtrate was determined. The saturated solubility of the compound was determined by HPLC.
as §1, with “C” for “A”

[2] = Hygroscopicity study by dynamic vapor sorption (DVS)
Protocol: 1.4. Dynamic Vapor Sorption, DVS Method
Instrument model: SMS DVS Advantage dynamic vapor sorption apparatus
Test conditions: The sample (10 to 15 mg) is weighed and placed in a DVS sample pan for testing.
The detailed DVS parameters are as follows:
Equilibration: dm/dt=0.01%/min (The shortest time: 10 min, and the longest time: 180 min)
Drying: Dried for 120 min at 0% RH
RH (%) test gradient: 10%
Range of RH (%) test gradient: 0%-90%-0%
The classification of hygroscopicity evaluation is as follows:
10-15 mg of the crystal form A and the crystal form C of the compound of formula (II) were weighed and placed into a DVS sample pan for testing.

[3] = Stability assay under illumination, high humidity, high temperature and acceleration (related substances and crystal form); design: Total impurity: unit not given here; conditions: for Change of crystal form: 10 days
Protocol: The stability of crystal form of the crystal form A and the crystal form C of the compound of formula (II) under the conditions of illumination, high humidity (92.5% RH), high temperature (60° C.) and acceleration (40° C./75% RH) was investigated.
Illumination test chamber, model: SHH-100GD-2, conditions: 5000±500 lux (visible light) and 90 mw/cm^2 (ultraviolet).
Electrothermal blowing dry box, model: GZX-9140MBE, conditions: 60° C.
Constant temperature and humidity chamber, model: LDS-800Y, conditions: 40° C./75% RH.
Constant temperature and humidity chamber, model: SHH-250SD, conditions: 25° C., 92.5% RH.
An appropriate amount of the crystal form A of the compound of formula (II) was weighed and placed in a dry and clean weighing bottle. The sample was spread into a thin layer, and fully exposed to assay conditions (60° C., 92.5% RH, illumination) and acceleration conditions (40° C./75% RH). After 17 days, the compound was taken out and determined for related substances and crystal form. […]

[4] = 0.1 mol/L HCl, pH 1, simulated gastric fluid
[5] = pH 6.8 buffer solution, pH 6.8, aqueous buffer
[6] = pH 7.4 buffer solution, pH 7.4, aqueous buffer

Q: With COc1cc2ncnc(Nc3cccc(Cl)c3F)c2cc1N1CC2(CN(C)C2)OC1=O.Cc1ccc(S(=O)(=O)O)cc1 as the molecule, how does the solubility at 2 h ([1]; 0.01 mol/L HCl, pH 2, simulated gastric fluid) read?
A: 7440 µg/mL

Q: What about the solubility at 2 h [1, 4] of the same molecule?
A: > 10000 µg/mL

Q: What about the solubility at 24 h [1, 4] of the same molecule?
A: > 10000 µg/mL

Q: And the solubility at 24 h ([1]; pH 5.5 buffer solution, pH 5.5, aqueous buffer)?
A: 1300 µg/mL

Q: And the solubility at 2 h [1, 5]?
A: 354 µg/mL

Q: And the solubility at 24 h [1, 5]?
A: 73 µg/mL

Q: What about the solubility at 2 h [1, 6] of the same molecule?
A: 99 µg/mL

Q: And the solubility at 24 h [1, 6]?
A: 22 µg/mL

Q: What about the solubility at 24 h ([1]; water) of the same molecule?
A: 1140 µg/mL

Q: What does the source list for COc1cc2ncnc(Nc3cccc(Cl)c3F)c2cc1N1CC2(CN(C)C2)OC1=O.Cc1ccc(S(=O)(=O)O)cc1 [crystal form C of the compound of formula (II)]?
A: ΔW (weight increase by moisture absorption) ([2]; 25° C. and 80% RH): 3.697%; Classification of hygroscopicity ([2]; 25° C., 80% RH): hygroscopic; Solubility (2 hours) ([1]; 0.01 mol/L HCl): 5666 µg/mL; Solubility (24 hours) ([1]; 0.01 mol/L HCl): 2863 µg/mL; Solubility (2 hours) ([1]; 0.1 mol/L HCl): >10000 µg/mL; Solubility (24 hours) ([1]; 0.1 mol/L HCl): >10000 µg/mL; Solubility (conclusion) ([1]; buffer solutions below pH 6.8 and purified water): high solubility; Final pH ([1]; 0.01 mol/L HCl): 2.863; Final pH ([1]; pH 3.8 buffer solution): 3.928; Final pH ([1]; pH 4.5 buffer solution): 4.560; Final pH ([1]; pH 5.5 buffer solution): 5.528; Final pH ([1]; pH 6.0 buffer solution): 5.708; Final pH ([1]; pH 6.8 buffer solution): 6.625; Final pH ([1]; pH 7.4 buffer solution): 7.142; Final pH ([1]; water): 5.444; Evaluation of dissolution property ([1]; merged cell: 0.1 mol/L HCl, 0.01 mol/L HCl, pH 3.8, 4.5, 5.5, 6.0 buffer solutions and water): High solubility; Evaluation of dissolution property ([1]; merged cell: pH 6.8 and pH 7.4 buffer solutions): Low solubility; Solubility (2 hours) ([1]; pH 3.8 buffer solution): 1612 µg/mL; Solubility (24 hours) ([1]; pH 3.8 buffer solution): 1681 µg/mL; Solubility (2 hours) ([1]; pH 4.5 buffer solution): 1167 µg/mL; Solubility (24 hours) ([1]; pH 4.5 buffer solution): 1186 µg/mL; Solubility (2 hours) ([1]; pH 5.5 buffer solution): 916 µg/mL; Solubility (24 hours) ([1]; pH 5.5 buffer solution): 863 µg/mL; Solubility (2 hours) ([1]; pH 6.0 buffer solution): 699 µg/mL; Solubility (24 hours) ([1]; pH 6.0 buffer solution): 328 µg/mL; Solubility (2 hours) ([1]; pH 6.8 buffer solution): 260 µg/mL; Solubility (24 hours) ([1]; pH 6.8 buffer solution): 71 µg/mL; Solubility (2 hours) ([1]; pH 7.4 buffer solution): 81 µg/mL; Solubility (24 hours) ([1]; pH 7.4 buffer solution): 40 µg/mL; Solubility (2 hours) ([1]; water): 720 µg/mL; Solubility (24 hours) ([1]; water): 646 µg/mL; Stability compared with the crystal form D of the maleate of the compound of formula (I) [3]: better; Related substance at relative retention time 0.24 ([3]; 40° - 75% RH - 10 days): 0.03; Related substance at relative retention time 0.69 ([3]; 40° - 75% RH - 10 days): 0.06; Related substance at relative retention time 0.88 ([3]; 40° - 75% RH - 10 days): 0.04; Related substance at relative retention time 0.92 ([3]; 40° - 75% RH - 10 days): 0.02; Related substance at relative retention time 1.24 ([3]; 40° - 75% RH - 10 days): 0.14; Related substance at relative retention time 1.30 ([3]; 40° - 75% RH - 10 days): 0.17; Related substance at relative retention time 1.81 ([3]; 40° - 75% RH - 10 days): 0.03; Total impurity ([3]; 40° - 75% RH - 10 days): 0.53; Related substance at relative retention time 0.24 ([3]; 60° - 10 days): 0.02; Related substance at relative retention time 0.69 ([3]; 60° - 10 days): 0.26; Related substance at relative retention time 0.88 ([3]; 60° - 10 days): 0.03; Related substance at relative retention time 1.24 ([3]; 60° - 10 days): 0.11; Related substance at relative retention time 1.30 ([3]; 60° - 10 days): 0.17; Related substance at relative retention time 1.81 ([3]; 60° - 10 days): 0.05; Related substance at relative retention time 1.89 ([3]; 60° - 10 days): 0.05; Total impurity ([3]; 60° - 10 days): 0.69; Related substance at relative retention time 0.24 ([3]; 92.5% RH - 10 days): 0.02; Related substance at relative retention time 0.69 ([3]; 92.5% RH - 10 days): 0.04; Related substance at relative retention time 0.88 ([3]; 92.5% RH - 10 days): 0.02; Related substance at relative retention time 1.24 ([3]; 92.5% RH - 10 days): 0.12; Related substance at relative retention time 1.30 ([3]; 92.5% RH - 10 days): 0.17; Total impurity ([3]; 92.5% RH - 10 days): 0.37; Related substance at relative retention time 0.24 ([3]; Illumination - 10 days): 0.02; Related substance at relative retention time 0.69 ([3]; Illumination - 10 days): 0.04; Related substance at relative retention time 0.81 ([3]; Illumination - 10 days): 0.04; Related substance at relative retention time 0.92 ([3]; Illumination - 10 days): 0.05; Related substance at relative retention time 1.15 ([3]; Illumination - 10 days): 0.02; Related substance at relative retention time 1.17 ([3]; Illumination - 10 days): 0.03; Related substance at relative retention time 1.24 ([3]; Illumination - 10 days): 0.11; Related substance at relative retention time 1.30 ([3]; Illumination - 10 days): 0.17; Total impurity ([3]; Illumination - 10 days): 0.40; Related substance at relative retention time 0.24 ([3]; Initial sample): 0.02; Related substance at relative retention time 0.69 ([3]; Initial sample): 0.04; Related substance at relative retention time 0.88 ([3]; Initial sample): 0.02; Related substance at relative retention time 0.92 ([3]; Initial sample): 0.02; Related substance at relative retention time 1.24 ([3]; Initial sample): 0.12; Related substance at relative retention time 1.30 ([3]; Initial sample): 0.17; Total impurity ([3]; Initial sample): 0.42; Change of crystal form ([3]; acceleration (40° C./75% RH)): not changed; Change of crystal form ([3]; high humidity (92.5% RH)): not changed; Change of crystal form ([3]; high temperature (60° C.)): not changed; Change of crystal form ([3]; illumination): not changed; Formation of degradation impurity (conclusion) ([3]; illumination, high temperature, high humidity, acceleration): produces a degradation impurity only under the condition of high temperature
